Source: ChEMBL document CHEMBL5154916, “Multiparameter Optimization of Naphthyridine Derivatives as Selective α5-GABAA Receptor Negative Allosteric Modulators” (J Med Chem, 2022)
≈ marks a conversion by molar mass, not a printed value. Calls of active or inactive are those of the source. The rule behind the calls is not given here.

What was measured:
[1] = Plasma protein binding in guinea pig; type: ADME, cell-free, Cavia porcellus; conditions: read-out: PPB (converted)
[2] = Half life in Wistar rat total plasma at 1 mg/kg, po by HPLC-MS/MS analysis; type: ADME, organism-based
[3] = system: Rattus norvegicus; assay: Pro-cognitive activity in neonatal PCP-impaired social recognition Wistar rat model assessed as time spent in recognition of new juveniles at 3 mg/kg, po administered 30 min before acquisition by social recognition test; type: functional, organism-based
[4] = Thermodynamic solubility of the compound at pH 6.5; type: physicochemical; conditions: buffer, read-out: Therm_solubility
[5] = Apparent permeability in human Caco2 cells assessed as permeability damage ratio at 1 uM by HPLC-UV analysis; type: ADME, cell-based; conditions: caco-2, 1 µM
[6] = target: Cytochrome P450 2C9 (Homo sapiens, UniProt P11712); assay: Inhibition of CYP2C9 (unknown origin); type: ADME
Chain of Cytochrome P450 2C9 (P11712 whole entry): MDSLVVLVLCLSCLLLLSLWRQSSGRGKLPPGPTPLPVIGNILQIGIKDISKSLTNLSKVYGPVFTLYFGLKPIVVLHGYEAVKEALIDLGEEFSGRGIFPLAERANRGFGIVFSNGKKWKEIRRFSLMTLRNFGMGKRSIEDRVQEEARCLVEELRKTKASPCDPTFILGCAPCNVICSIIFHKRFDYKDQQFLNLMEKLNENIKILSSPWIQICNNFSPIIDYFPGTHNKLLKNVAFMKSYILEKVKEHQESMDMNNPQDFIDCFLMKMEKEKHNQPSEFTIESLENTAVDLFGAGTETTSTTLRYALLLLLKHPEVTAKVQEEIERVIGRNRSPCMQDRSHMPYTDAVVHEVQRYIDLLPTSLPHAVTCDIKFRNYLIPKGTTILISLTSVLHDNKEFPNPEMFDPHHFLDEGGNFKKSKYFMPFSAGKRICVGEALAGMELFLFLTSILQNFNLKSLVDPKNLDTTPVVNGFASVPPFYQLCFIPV

[7] = AUC (0 to infinity) in Wistar rat total plasma at 1 mg/kg, iv by HPLC-MS/MS analysis; type: ADME, organism-based; parameters: time infinity, dose 1 mg/kg, route iv
[8] = Metabolic stability in human liver microsomes assessed as intrinsic clearance at 2.5 uM; type: ADME, Microsome; conditions: read-out: CLH
[9] = […] in po dosed PTZ-induced seizure mouse model assessed as NOAEL by seizure test; type: organism-based; conditions: in vivo
[10] = […] in po dosed Wistar rat assessed as convulsive activity by assessing NOAEL by electroconvulsive test; type: organism-based; conditions: in vivo
[11] = Thermodynamic solubility of the compound at pH 7.4; type: physicochemical; conditions: buffer, read-out: Therm_solubility
[12] = target: GABA-A receptor; alpha-5/beta-3/gamma-2 (Homo sapiens) (UniProt P18507+P28472+P31644); assay: Negative allosteric modulation activity at human recombinant alpha5beta3gamma2 GABAA receptor stably expressed in HEK293 cells assessed as modulation at alpha5 subunit at 10 uM by Patch clamp method; type: cell-based; conditions: filed as negative allosteric modulator
[13] = Genotoxicity in Salmonella typhimurium up to 5000 ug/ml by Ames test; type: toxicity; conditions: salmonella enterica subsp. enterica serovar typhimurium; dose < 5000 µg/ml
[14] = Plasma level ratio in Wistar rat assessed as ratio between plasma concentration in PCP-induced toxicity Wistar rat model to plasma concentration in pro-cognitive activity for subchronic PCP-induced cognitive impairment associated schizophrenia Wistar rat model
[15] = target: T1, Cytochrome P450 2C8 (Homo sapiens, UniProt P10632); assay: Inhibition of CYP2C8 (unknown origin); type: ADME
T1 sequence (P10632 whole entry): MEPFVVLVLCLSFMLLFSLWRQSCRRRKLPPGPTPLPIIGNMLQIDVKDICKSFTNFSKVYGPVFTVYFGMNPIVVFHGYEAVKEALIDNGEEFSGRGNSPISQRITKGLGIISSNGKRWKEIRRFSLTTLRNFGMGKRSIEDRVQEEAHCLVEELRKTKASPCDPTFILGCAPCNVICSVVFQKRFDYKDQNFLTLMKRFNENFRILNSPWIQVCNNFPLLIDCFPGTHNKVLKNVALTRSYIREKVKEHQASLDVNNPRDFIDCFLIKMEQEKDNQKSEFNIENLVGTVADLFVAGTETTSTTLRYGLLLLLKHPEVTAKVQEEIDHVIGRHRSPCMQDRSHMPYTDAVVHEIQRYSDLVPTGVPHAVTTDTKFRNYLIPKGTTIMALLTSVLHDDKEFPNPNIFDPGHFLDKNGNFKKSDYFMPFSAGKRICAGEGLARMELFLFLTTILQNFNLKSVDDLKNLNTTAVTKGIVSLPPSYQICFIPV

[16] = Apparent permeability in human Caco-2 cells at 1 uM by HPLC-UV analysis; type: ADME, cell-based
[17] = target: T2, GABA-A receptor; alpha-5/beta-3/gamma-2 (Homo sapiens, UniProt P18507+P28472+P31644); assay: Displacement of [3H]Ro151788 from human recombinant alpha5beta3gamma2 GABAA receptor stably expressed in HEK293 cell membrane assessed as inhibition constant by radioligand binding assay; type: cell membranes
T2 sequence (P18507 whole entry): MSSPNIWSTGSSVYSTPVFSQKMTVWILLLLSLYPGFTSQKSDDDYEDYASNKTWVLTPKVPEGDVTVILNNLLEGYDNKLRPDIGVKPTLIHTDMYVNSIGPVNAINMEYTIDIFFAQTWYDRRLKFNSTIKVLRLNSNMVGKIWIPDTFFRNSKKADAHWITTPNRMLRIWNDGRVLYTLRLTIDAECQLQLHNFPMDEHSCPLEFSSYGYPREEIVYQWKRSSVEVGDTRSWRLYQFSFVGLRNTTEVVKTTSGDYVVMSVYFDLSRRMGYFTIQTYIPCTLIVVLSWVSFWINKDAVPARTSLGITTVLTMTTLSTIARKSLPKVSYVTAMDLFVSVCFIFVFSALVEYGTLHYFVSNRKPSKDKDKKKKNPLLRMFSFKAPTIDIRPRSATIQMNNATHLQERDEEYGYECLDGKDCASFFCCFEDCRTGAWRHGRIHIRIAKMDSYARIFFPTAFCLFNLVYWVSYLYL
T2 sequence (P28472 whole entry): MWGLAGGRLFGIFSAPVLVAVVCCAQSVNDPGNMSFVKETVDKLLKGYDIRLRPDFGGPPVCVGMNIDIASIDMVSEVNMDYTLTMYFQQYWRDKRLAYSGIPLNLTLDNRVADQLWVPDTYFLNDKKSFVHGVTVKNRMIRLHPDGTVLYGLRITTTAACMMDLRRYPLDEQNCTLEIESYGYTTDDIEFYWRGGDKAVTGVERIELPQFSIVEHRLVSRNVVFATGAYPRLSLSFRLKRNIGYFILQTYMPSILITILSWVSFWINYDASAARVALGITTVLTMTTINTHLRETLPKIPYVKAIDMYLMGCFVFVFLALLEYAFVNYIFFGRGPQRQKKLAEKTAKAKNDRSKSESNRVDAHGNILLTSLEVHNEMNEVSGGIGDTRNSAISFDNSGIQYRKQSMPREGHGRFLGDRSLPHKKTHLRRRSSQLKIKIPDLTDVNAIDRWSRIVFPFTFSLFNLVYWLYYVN
T2 sequence (P31644 whole entry): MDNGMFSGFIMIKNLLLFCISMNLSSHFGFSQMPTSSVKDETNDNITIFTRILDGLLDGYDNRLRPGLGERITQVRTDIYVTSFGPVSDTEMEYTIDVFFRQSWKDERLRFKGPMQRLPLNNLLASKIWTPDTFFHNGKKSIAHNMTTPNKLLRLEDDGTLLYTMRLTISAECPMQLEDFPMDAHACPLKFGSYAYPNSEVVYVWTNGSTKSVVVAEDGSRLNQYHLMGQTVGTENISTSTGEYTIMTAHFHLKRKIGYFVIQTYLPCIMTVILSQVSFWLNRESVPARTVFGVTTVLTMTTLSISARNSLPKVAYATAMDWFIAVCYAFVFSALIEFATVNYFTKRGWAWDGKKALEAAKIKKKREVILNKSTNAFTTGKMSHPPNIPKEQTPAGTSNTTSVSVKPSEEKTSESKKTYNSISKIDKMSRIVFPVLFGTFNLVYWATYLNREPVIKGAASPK

[18] = Half life in Wistar rat total plasma at 1 mg/kg, iv by HPLC-MS/MS analysis; type: ADME, organism-based

Compound: Cc1onc(-c2ccc(F)cc2)c1COc1ccc2c(n1)CCN(C(=O)CS(C)(=O)=O)C2
- fraction unbound [1]: 0.023
- half-life [2]: 70.2 min
- Activity [3]: Active
- solubility thermodynamic [4]: 9.8 µM (≈ 4.5 µg/mL)
- Ratio [5]: 0.93
- IC50 [6]: > 50 µM
- AUC(0-inf) [7]: 407 ng·h/mL
- microsomal CLint at 2.5 µM [8]: 6 µL/min/mg
- NOAEL [9]: ≥ 30 mg/kg
- NOAEL [10]: ≥ 1000 mg/kg
- solubility thermodynamic [11]: 0.081 µM (≈ 0.0372 µg/mL)
- Activity [12]: -39%
- Activity [13]: Non-Toxic
- Ratio [14]: 11
- IC50 [15]: > 50 µM
- Papp at 1 µM [16]: 43 ×10⁻⁶ cm/s
- Ki [17]: 0.0041 µM
- half-life [18]: 31.8 min
